According to patent publication US20150223675A1, “LUMINAL ADMINISTRATION OF TAG MOLECULES FOR DIAGNOSTIC APPLICATIONS” (GIVEN IMAGING LTD., priority 2012, published 2015):
“And” between values parts separate entries of the source, which are not always exact repeats. Identical values can stand only once.

Columns and labels:
human colorectal tumors = test: Luminal (rectal, minicolonoscope) administration of dye to orthotopic mice; fluorescence of tumor and surrounding colon tissue by fluorescent camera, with histopathology; format: in vivo, mouse; settings: for fluorescent labeling of tumor exposed to the colon lumen: tumor confirmed by histopathology
Method: Orthotopic mice with human colorectal tumors in their colons were used for […] administration of the IR-783 derivative—IR-783-S-PH-COOH. 4 μg of the IR-783-S-PH-COOH dissolved in 200 μl PBS were introduced into the colon of the mouse via minicolonoscope inserted through the rectum. The IR-783-S-PH-COOH solution was incubated in the colon for 20 minutes and then washed out with 5 ml PBS inserted through the rectum. Four hours later, mice were sacrificed and the fluorescence of the tumor and the surrounding colon tissue was measured by a fluorescent camera setup. Histopathological examination was performed on paraffin fixed colonic tissue specimens.
Orthotopic mice with human colorectal tumors in their colons were used for luminal administration of IR-783. 4 μg of IR-783 dissolved in 200 μl PBS were introduced into the colon of the mouse via a minicolonoscope inserted through the rectum. The IR-783 solution was incubated in the colon for 20 minutes and then washed out with 5 ml of PBS. 4 h later, the mice were sacrificed and the fluorescence of the tumor and the surrounding colon was measured by a fluorescent camera setup. Histopathological examination was performed on paraffin fixed colonic tissue specimens.

tumors = settings: 24 hours after dye administration by injection; prior art; cited from earlier work
[1] = Gastric gavage of dye to mice; organ fluorescence (liver, spleen, heart, lungs, kidneys, brain) by fluorescent camera; format: in vivo; settings: 5 hours later
Method: 4 μg of IR-783 dissolved in 200 μl PBS were introduced into mice stomach by gastric gavage. Five hours later, the mice were sacrificed and liver, spleen, heart, lungs, kidneys and brain were collected and measured for fluorescence by a fluorescent camera setup. […] Grey levels of the organs are indicated by the numbers on the fluorescent pictures next to the imaged organs, e.g., grey level in the liver was 4000 in two mice and 2500 in a third mouse, and grey levels in the kidneys were 3500, 200 and 1200, respectively.

[2] = 4 μg in 200 μl PBS into colon, 20 min incubation, 4 h later
[3] = 4 μg in 200 μl PBS by gastric gavage, individual mice

| Compound | fluorescent labeling of tumor exposed to the colon lumen (human colorectal tumors; [2]) | tumor to background ratio (human colorectal tumors; 4 μg in 200 μl PBS into colon, 20 min incubation, washed out, measured 4 h later, 1 second exposure, histopathologically confirmed tumor) | fluorescent labeling of non-cancerous lymphatic tissue region (human colorectal tumors; 4 μg into colon, 4 h later, suspected region with no tumor cells) | dye concentration in tumors compared to normal body tissue (tumors) | fluorescent labeling of tumors developed below the murine mucosal layer (not exposed to colon lumen) (human colorectal tumors; 4 μg into colon, 20 min incubation, 4 h later, FIG. 6B) | organs in which fluorescence was detected ([1]; 4 μg by gastric gavage, liver, spleen, heart, lungs, kidneys, brain examined) | grey level in the liver [1, 3] | grey levels in the kidneys [1, 3] |
| --- | --- | --- | --- | --- | --- | --- | --- | --- |
| IR-783-S-PH-COOH | intensely labeled | 60 | not labeled |  |  |  |  |  |
| CC1(C)C(=CC=C2CCCC(C=CC3=[N+](CCCCS(=O)(=O)[O-])c4ccccc4C3(C)C)=C2Cl)N(CCCCS(=O)(=O)[O-])c2ccccc21.[Na+] [IR-783] | intensely labeled |  |  | much higher in tumors | not labeled | detected in the liver and kidneys | 4000 and 2500 | 3500 and 200 and 1200 |
